# Target: T1, human glycolate oxidase (hGO) (Homo sapiens, UniProt Q9UJM8)
# T1 construct: His-tag (6 histidines, pET-15b) (N); made in house; host or cells: E. coli BL21 (DE3)
# T1 sequence (Q9UJM8 1-370): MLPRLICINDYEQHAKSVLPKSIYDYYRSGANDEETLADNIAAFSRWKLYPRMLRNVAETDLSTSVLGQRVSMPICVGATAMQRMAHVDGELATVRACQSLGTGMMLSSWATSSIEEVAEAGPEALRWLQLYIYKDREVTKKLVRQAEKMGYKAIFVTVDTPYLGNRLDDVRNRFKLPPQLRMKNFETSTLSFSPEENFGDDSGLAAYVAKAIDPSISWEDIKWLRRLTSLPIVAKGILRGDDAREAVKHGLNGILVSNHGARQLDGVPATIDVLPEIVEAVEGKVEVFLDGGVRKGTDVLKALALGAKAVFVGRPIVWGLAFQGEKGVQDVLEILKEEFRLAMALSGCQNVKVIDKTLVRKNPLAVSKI
# Assay: In vitro inhibition of human glycolate oxidase (enzymatic assay, HRP-coupled Trinder reaction);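 for % Inhibition: values are IC50 potency bins despite the % Inhibition label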
# Type: biochemical
# Details: not given
# Excerpt: The catalytic reactions used for assaying glycolate oxidase activity in the presence of compounds according to the present disclosure are outlined in FIG. 2. Glycolate oxidase (GO)-catalyzed conversion of glycolate to glyoxylate (top reaction), with the concomitant reduction of the cofactor flavin mononucleotide (FMN), uses molecular oxygen (O2) for recovering its oxidative state, releasing hydrogen peroxide (H2O2). The Trinder reaction (bottom reaction), in which horseradish peroxidase (HRP) uses hydrogen peroxide, 4-aminoantipyrine and a phenol derivative (sulphonated DCIP) to generate a quinoneimine dye that is spectrophotometrically measured.
# Human glycolate oxidase (hGO) expression. BL21 (DE3) E. coli transformed with recombinant pET-15b expression vector with the N-terminal His-tag human Hao1 cDNA was grown in LB medium in the presence of 0.1 mg/ml ampicillin. For purification of recombinant human glycolate oxidase (hGO) expressed in BL21 E. coli, bacteria pellets were thawed and re-suspended in 2 ml lysis buffer (50 mM NaH2PO4, 300 mM NaCl, 10 mM imidazole, 50 μM FMN, pH 7.5), and then treated for 30 minutes with 1 mM PMSF for protease inhibition, 0.1% Triton X-100 and 0.2 mg/ml lysozyme to break cellular membranes. After sonication, cells were centrifuged and the supernatant containing the total cellular extract (pre-column fraction) was loaded into a Ni-NTA agarose column and incubated for 30 minutes at 4° C. to allow binding of the 6 histidine tail of recombinant GO protein to the nickel ions. The column was washed with two bed volumes of lysis buffer with 20 mM imidazole to eliminate unbound proteins (wash fraction). GO was eluted using the same buffer with 300 mM imidazole. Fraction containing purified GO was dialyzed against 300 ml of dialysis buffer (50 mM NaH2PO4, 300 mM NaCl, pH 7.5) at 4° C. in agitation overnight, and then kept at 4° C. in darkness. Protein were quantified by the bicinchoninic acid (BCA) assay.
# Enzymatic assays. Enzymatic activity of hGO was determined in the presence of glycolate as substrate (40 mM glycolic acid) and phosphate buffer (50 mM KPO4, 0.1 mM EDTA, pH 7). The production of glyoxylate was indirectly measured by the quantification of hydrogen peroxide formed during the first oxidation reaction. […] Enzymatic activity was calculated at 1 minute after initiation of the Trinder reaction.
row,Compound,IC50 [µM]
1,"O=C(O)c1nn[nH]c1Oc1ccc(-c2ccccc2)cc1 [Example 42, 5-([1,1′-biphenyl]-4-yloxy)-1H-1,2,3-triazole-4-carboxylic Acid]",0.1 to 0.2
2,"O=C(O)c1nn[nH]c1Oc1ccccc1 [Example 45, 5-phenoxy-1H-1,2,3-triazole-4-carboxylic Acid]",> 0.2
3,"COc1ccc(Oc2[nH]nnc2C(=O)O)cc1 [Example 46, 5-(4-methoxyphenoxy)-1H-1,2,3-triazole-4-carboxylic Acid]",< 0.1
4,"O=C(O)c1nn[nH]c1Sc1ccc(Br)cc1 [Example 52, 5-((4-bromophenyl)thio)-1H-1,2,3-triazole-4-carboxylic Acid]",0.1 to 0.2

# Same assay, conditions: recombinant hGO, 40 mM glycolic acid, pH 7, read at 515 nm, 1 minute after initiation of Trinder reaction; read-out: % Inhibition
row,Compound,IC50 [µM]
1,"Cc1ccc(Oc2[nH]nnc2C(=O)O)cc1 [Example 43, 5-(p-tolyloxy)-1H-1,2,3-triazole-4-carboxylic Acid]",0.1 to 0.2
2,"O=C(O)c1nn[nH]c1Oc1ccc(-c2cccc(OC(F)F)c2)nc1 [Example 44, 5-((6-(3-(difluoromethoxy)phenyl)pyridin-3-yl)oxy)-1H-1,2,3-triazole-4-carboxylic Acid]",0.1 to 0.2
3,"O=C(O)c1nn[nH]c1Sc1ccc(F)cc1 [Example 47, 5-((4-fluorophenyl)thio)-1H-1,2,3-triazole-4-carboxylic Acid]",0.1 to 0.2
4,"O=C(O)c1nn[nH]c1Oc1ccc(Br)c(Cl)c1 [Example 48, 5-(4-bromo-3-chlorophenoxy)-1H-1,2,3-triazole-4-carboxylic Acid]",< 0.1
5,"O=C(O)c1nn[nH]c1Oc1ccc(Cl)nc1 [Example 49, 5-((6-chloropyridin-3-yl)oxy)-1H-1,2,3-triazole-4-carboxylic Acid]",< 0.1
6,"O=C(O)c1nn[nH]c1Oc1ccc(Br)cc1F [Example 51, 5-(4-bromo-2-fluorophenoxy)-1H-1,2,3-triazole-4-carboxylic Acid]",< 0.1
7,"N#Cc1ccc(Oc2[nH]nnc2C(=O)O)cc1 [Example 53, 5-(4-cyanophenoxy)-1H-1,2,3-triazole-4-carboxylic Acid]",< 0.1
8,"Cc1ccc(Oc2[nH]nnc2C(=O)O)cn1 [Example 54, 5-((6-methylpyridin-3-yl)oxy)-1H-1,2,3-triazole-4-carboxylic Acid]",> 0.2
9,"N#Cc1ccc(-c2ccc(Oc3[nH]nnc3C(=O)O)cn2)cc1 [Example 55, 5-((6-(4-cyanophenyl)pyridin-3-yl)oxy)-1H-1,2,3-triazole-4-carboxylic Acid]",< 0.1
10,"NC(=O)c1ccc(Oc2[nH]nnc2C(=O)O)cc1 [Example 56, 5-(4-carbamoylphenoxy)-1H-1,2,3-triazole-4-carboxylic Acid]",> 0.2
11,"O=C(O)c1nn[nH]c1Oc1cccnc1F [Example 57, 5-((2-fluoropyridin-3-yl)oxy)-1H-1,2,3-triazole-4-carboxylic Acid]",> 0.2
12,"CN(C)c1cccc(Oc2[nH]nnc2C(=O)O)c1 [Example 58, 5-(3-(dimethylamino)phenoxy)-1H-1,2,3-triazole-4-carboxylic Acid]",< 0.1
13,"Cc1ncc(-c2cccc(Oc3[nH]nnc3C(=O)O)c2)cn1 [Example 59, 5-(3-(2-methylpyrimidin-5-yl)phenoxy)-1H-1,2,3-triazole-4-carboxylic Acid]",< 0.1
14,"O=C(O)c1nn[nH]c1Oc1ccc(C(F)(F)F)cc1 [Example 60, 5-(4-(trifluoromethyl)phenoxy)-1H-1,2,3-triazole-4-carboxylic Acid]",< 0.1
15,"O=C(O)c1nn[nH]c1Oc1cccc(-c2cccnc2F)c1 [Example 61, 5-(3-(2-fluoropyridin-3-yl)phenoxy)-1H-1,2,3-triazole-4-carboxylic Acid]",< 0.1
16,"O=C(O)c1nn[nH]c1Sc1ccc(-c2cccnc2F)cc1 [Example 62, 5-((4-(2-fluoropyridin-3-yl)phenyl)thio)-1H-1,2,3-triazole-4-carboxylic Acid]",0.1 to 0.2
17,"NC(=O)c1ccc(-c2cccc(Oc3[nH]nnc3C(=O)O)c2)cc1 [Example 63, 5-((4′-carbamoyl-[1,1′-biphenyl]-3-yl)oxy)-1H-1,2,3-triazole-4-carboxylic Acid]",0.1 to 0.2
